Assay type in all cases: cell-based
One assay deals with Hela. Kind of assay: Antiproliferative activity (MTS assay), Hela. The following applies: Homo sapiens, HeLa, 96 h, Hela cells. On the procedure: (§1) Antiproliferative effect is expressed as IC50 values in microMolar final concentration.
(§2) Cells were grown at 37° C. in a humidified atmosphere with 5% CO2 and 95% air. Cells were seeded in 96 well tissue culture plates.
(§3) Compound treatment started after overnight incubation of cells (TO). […] Compound was added to the plate in triplicate wells, and the plates were then incubated for 96 hours. DMSO (compounds diluents) was also included and added to the plate in control wells. Cell viability was then determined by MTS assay using CellTiter 96® AQueous non-radioactive cell proliferation assay system (Promega). A plate reader (Molecular Devices, Vmax) was used to read the optical densities, and the results were used to deduce concentration-response curves. […] The results were analyzed using linear regression software (GraphPad Prism 5; GraphPad Software Inc.).
(§4) The GI50 values (growth inhibitory activity) were determined to emphasize on the correction for the cell count at time zero; thus, the % inhibition of test drug were: [1−(T−T0)/(C−T0)]×100; and these value were used to plot the concentration-response curves, and then analyzed with linear regression software (GraphPad Prism 5).

The test system of the next assay is K562. Kind of assay: Antiproliferative activity (MTS assay), K562. The following applies: Homo sapiens, K562, 96 h, K562 cells. As for the experimental part:
as §1, §2, §3, §4
A general note: Formazan colour is commonly taken as a measure of viable cells.

The subject of a further assay is MDA-MB-468. Kind of assay: Antiproliferative activity (MTS assay), MDA-MB-468. To be noted: Homo sapiens, MDA-MB-468, 96 h, MDA-MB-468 cells. As for the experimental part: as §1, §2, §3, §4
For another assay, the system named is MDA-MB-231. Description: Antiproliferative activity (MTS assay), MDA-MB-231. The following applies: Homo sapiens, MDA-MB-231, 96 h, MDA-MB-231 cells. On the procedure:
as §1, §2, §3, §4

pIC50: −log10 of the molar value. A value given as a limit tells only on which side of the number the result lay.

One may read the pIC50 as the negative decadic logarithm of the IC50, by convention in mol/L. Higher therefore signals a low IC50.

`Cc1sc(NC(=O)c2ccncc2)nc1-c1ccccc1` [Compound 2]: the pIC50 in the assay on Hela is less than 5.00; in the assay with K562, less than 5.00; in the assay with MDA-MB-468 it was 5.09; with MDA-MB-231, less than 5.00.
Consider `Cc1sc(NC(=O)c2cccnc2)nc1-c1ccccc1` [Compound 3], for which the pIC50 in the assay with Hela, in the assay on K562, with MDA-MB-468 and in the assay with MDA-MB-231 was less than 5.00 in each case.
As to `Cc1cc(C)c(-c2csc(NC(=O)c3ccncn3)n2)c(C)c1` [Compound 5], the pIC50 was less than 5.00 in the assay with Hela, 5.24 in the assay on K562, 5.34 in the assay on MDA-MB-468 and 5.13 in the assay on MDA-MB-231.
With `Cc1ccc(-c2csc(NC(=O)c3ccncc3)n2)cc1` [Compound 6], the pIC50 in the assay on Hela is 5.98; in the assay with K562, 5.83; in the assay with MDA-MB-468, 5.94; in the assay with MDA-MB-231, 6.17.
The like results for `Cc1ccc(-c2csc(NC(=O)c3ccc(C#N)cc3)n2)cc1` [Compound 7] were, in that order, less than 5.00, less than 5.00, less than 5.00 and less than 5.00.
Consider `Cc1cc(C)c(-c2csc(NC(=O)c3ccnnc3)n2)c(C)c1` [Compound 8], for which the pIC50 is 5.06 with Hela, 5.25 in the assay with K562, 5.21 in the assay on MDA-MB-468 and 5.51 in the assay with MDA-MB-231.
As for `Cc1cc(C)c(-c2csc(NC(=O)c3cncs3)n2)c(C)c1` [Compound 9], the pIC50 in the assay on Hela was 5.82; with K562, 5.57; in the assay on MDA-MB-468, 5.74; in the assay with MDA-MB-231, 5.91.
In the same order, the values of `COc1ccc(-c2nc(NC(=O)c3ccncc3)sc2C)cc1` [Compound 10] are less than 5.00, less than 5.00, 5.05 and 5.10.
As for `COc1cc(OC)c(-c2csc(NC(=O)c3ccncc3)n2)c(OC)c1` [Compound 11], the pIC50 with Hela, with K562, in the assay with MDA-MB-468 and in the assay on MDA-MB-231 was less than 5.00 throughout.
For the compound `COc1ccc(-c2csc(NC(=O)c3ccncc3)n2)cc1` [Compound 12], the pIC50 in the assay with Hela is less than 5.00; in the assay with K562, 5.41; in the assay on MDA-MB-468, 5.54; in the assay on MDA-MB-231, 5.85.
Consider `COc1ccc(-c2csc(NC(=O)c3ccncc3)n2)c(OC)c1` [Compound 13], for which the pIC50 in the assay on Hela, in the assay with K562, in the assay with MDA-MB-468 and in the assay with MDA-MB-231 was less than 5.00 each time.
As for `COc1ccc(-c2nc(NC(=O)c3cccnc3)sc2C)cc1` [Compound 14], the pIC50 with Hela, with K562, in the assay on MDA-MB-468 and with MDA-MB-231 was less than 5.00 in each case.
As for `COc1ccc(-c2csc(NC(=O)c3cccnc3)n2)c(OC)c1` [Compound 15], the pIC50 with Hela, in the assay with K562, with MDA-MB-468 and with MDA-MB-231 was less than 5.00 in each case.
In the case of `COc1ccc(-c2nc(NC(=O)c3ccccn3)sc2C)cc1` [Compound 16], the pIC50 in the assay on Hela, in the assay with K562, in the assay with MDA-MB-468 and with MDA-MB-231 was less than 5.00 each time.
As to `COc1ccc(-c2csc(NC(=O)c3ccccn3)n2)cc1` [Compound 17], the pIC50 in the assay with Hela, with K562, in the assay with MDA-MB-468 and in the assay on MDA-MB-231 was less than 5.00 in each case.
As for `COc1ccc(-c2csc(NC(=O)c3ccccn3)n2)c(OC)c1` [Compound 18], the pIC50 in the assay on Hela, with K562, in the assay on MDA-MB-468 and in the assay with MDA-MB-231 was less than 5.00 in each case.
As to `Cc1sc(NC(=O)c2ccccn2)nc1-c1ccccc1` [Compound 19], the pIC50 is less than 5.00 in the assay with Hela, less than 5.00 with K562, 5.16 with MDA-MB-468 and 5.17 in the assay with MDA-MB-231.
With `COc1cc(-c2csc(NC(=O)c3cccnc3)n2)cc(OC)c1OC` [Compound 20], the pIC50 in the assay on Hela, in the assay on K562, with MDA-MB-468 and with MDA-MB-231 was less than 5.00 in each case.
Take `COc1ccc(-c2csc(NC(=O)c3cccnc3)n2)c(F)c1` [Compound 21]: the pIC50 in the assay with Hela, in the assay with K562, in the assay on MDA-MB-468 and with MDA-MB-231 was less than 5.00 in each case.
For `COc1ccc(CCC(=O)Nc2nc(-c3ccc(OC)cc3F)cs2)cc1` [Compound 22], the negative-log IC50 (pIC50) with Hela is less than 5.00; in the assay with K562, less than 5.00; with MDA-MB-468 it was 5.38; in the assay on MDA-MB-231, less than 5.00.
On to `COc1ccc(-c2csc(NC(=O)CCc3ccccc3)n2)c(F)c1` [Compound 23], for which the pIC50 with Hela was less than 5.00; in the assay with K562, less than 5.00; in the assay on MDA-MB-468, 5.15; with MDA-MB-231, less than 5.00.
For the compound `COc1ccc(-c2csc(NC(=O)c3ccccn3)n2)c(F)c1` [Compound 24], the pIC50 with Hela, with K562, in the assay with MDA-MB-468 and in the assay with MDA-MB-231 was less than 5.00 each time.
For the compound `COc1cc(-c2csc(NC(=O)c3ccccn3)n2)cc(OC)c1OC` [Compound 25], the pIC50 in the assay on Hela, in the assay with K562, with MDA-MB-468 and in the assay with MDA-MB-231 was less than 5.00 throughout.
For the compound `COc1ccc(-c2csc(NC(=O)c3ccncc3)n2)c(F)c1` [Compound 26], the pIC50 is less than 5.00 in the assay on Hela, 5.61 with K562, 5.65 with MDA-MB-468 and 5.16 with MDA-MB-231.
The like results for `COc1cc(-c2csc(NC(=O)c3ccncc3)n2)cc(OC)c1OC` [Compound 27] were, in that order, less than 5.00, less than 5.00, less than 5.00 and less than 5.00.
In the same order, the values of `Cc1ccc(-c2csc(NC(=O)c3cccnc3)n2)cc1` [Compound 28] are less than 5.00, less than 5.00, less than 5.00 and less than 5.00.
In the case of `Cc1ccc(-c2csc(NC(=O)c3ccccn3)n2)cc1` [Compound 29], the pIC50 in the assay on Hela, in the assay on K562, with MDA-MB-468 and in the assay on MDA-MB-231 was less than 5.00 each time.
For the compound `Cc1ccc(-c2nc(NC(=O)c3ccc(C#N)cc3)sc2C)cc1` [Compound 30], the pIC50 in the assay with Hela, in the assay with K562, in the assay on MDA-MB-468 and in the assay with MDA-MB-231 was less than 5.00 in each case.
For the compound `Cc1ccc(-c2nc(NC(=O)c3cccnc3)sc2C)cc1` [Compound 31], the negative-log IC50 (pIC50) in the assay on Hela, with K562, in the assay on MDA-MB-468 and with MDA-MB-231 was less than 5.00 each time.
`Cc1ccc(-c2nc(NC(=O)c3ccccn3)sc2C)cc1` [Compound 32]: the pIC50 with Hela, with K562, with MDA-MB-468 and in the assay with MDA-MB-231 was less than 5.00 in each case.
Consider `Cc1cc(C)c(-c2csc(NC(=O)c3ccsc3)n2)c(C)c1` [Compound 33], for which the pIC50 was less than 5.00 in the assay on Hela, less than 5.00 in the assay with K562, 6.10 with MDA-MB-468 and less than 5.00 in the assay on MDA-MB-231.
Turning to `COc1cc(-c2csc(NC(=O)c3ccncc3)n2)ccc1O` [Compound 34], the pIC50 in the assay on Hela, in the assay with K562, in the assay with MDA-MB-468 and in the assay on MDA-MB-231 was less than 5.00 in each case.
Consider `COc1cc(-c2csc(NC(=O)c3cccnc3)n2)ccc1O` [Compound 35], for which the pIC50 with Hela, with K562, in the assay with MDA-MB-468 and with MDA-MB-231 was less than 5.00 in each case.
Regarding `COc1cc(-c2csc(NC(=O)c3ccccn3)n2)ccc1O` [Compound 36], the pIC50 in the assay on Hela, in the assay with K562, in the assay with MDA-MB-468 and in the assay with MDA-MB-231 was less than 5.00 throughout.
On to `COc1ccc(-c2csc(NC(=O)c3cccnc3)n2)cc1` [Compound 37], for which the pIC50 with Hela, with K562, in the assay on MDA-MB-468 and in the assay on MDA-MB-231 was less than 5.00 in each case.
Consider `Cc1sc(NC(=O)c2ccc(C#N)cc2)nc1-c1ccccc1` [Compound 38], for which the pIC50 was less than 5.00 in the assay with Hela, less than 5.00 in the assay with K562, 5.47 in the assay on MDA-MB-468 and 5.25 in the assay with MDA-MB-231.
For `COc1ccc(-c2nc(NC(=O)c3ccc(C#N)cc3)sc2C)cc1` [Compound 39], the pIC50 in the assay with Hela, in the assay on K562, in the assay on MDA-MB-468 and with MDA-MB-231 was less than 5.00 each time.
`COc1ccc(-c2csc(NC(=O)Cc3ccccc3OC)n2)c(OC)c1` [Compound 40]: the pIC50 in the assay on Hela, in the assay on K562, in the assay on MDA-MB-468 and in the assay with MDA-MB-231 was less than 5.00 each time.
Take `COc1ccccc1CC(=O)Nc1nc(-c2ccccc2)c(C)s1` [Compound 41]: the negative-log IC50 (pIC50) with Hela, with K562, in the assay with MDA-MB-468 and with MDA-MB-231 was less than 5.00 each time.
For the compound `Cc1ccc(-c2nc(NC(=O)c3ccncc3)sc2C)cc1` [Compound 43], the pIC50 in the assay with Hela, with K562, with MDA-MB-468 and in the assay on MDA-MB-231 was less than 5.00 throughout.

Source of the values: patent US8946268B2, “Modulators of HEC1 activity and methods therefor” (Taivex Therapeutics, Inc., priority 2010, dated 2015).
